Earlier results in PubChem BioAssay AID1259409 (Chemical Carcinogenesis Research Information System (CCRIS), 2018).

Tested on: rodent chemically induced tumor inhibition, incidence and multiplicity
Experiment: CCRIS tumor inhibitor studies

## CC1=C(/C=C/C(C)=C/C=C/C(C)=C\C(=O)O)C(C)(C)CCC1
Carcinogen: N-BUTYL-N-(4-HYDROXYBUTYL)NITROSAMINE, 3817-11-6, Dose [Inhibitor]: 200 MG/KG DIET DAILY STARTING 7 D AFTER LAST CARCINOGEN DOSE AND CONTINUING THROUGH THE END OF STUDY (STUDY DURATION: 6, Route [Inhibitor]: ORAL, Species: MOUSE, Strain/Sex: C57BL/MALE, Target Tissue: Type of Lesion: URINARY BLADDER: TRANSITIONAL AND SQUAMOUS CELL CARCINOMA, Dose [Carcinogen]: 7.5 MG 2/WK FOR 6 WK, Promoter: NONE USED
  tumour outcome (control, treated, inhibition, significance): 8/24 (33%), 0/19 (0%), 100%, p<0.01
Carcinogen: N-BUTYL-N-(4-HYDROXYBUTYL)NITROSAMINE, 3817-11-6, Dose [Inhibitor]: 200 MG/KG DIET DAILY STARTING 7 D AFTER LAST CARCINOGEN INTUBATION AND CONTINUING THROUGH THE END OF STUDY (STUDY DURATI, Route [Inhibitor]: ORAL, Species: MOUSE, Strain/Sex: C57BL/MALE, Target Tissue: Type of Lesion: URINARY BLADDER: NEOPLASM (CARCINOMA, NONINVASIVE TRANSITIONAL CELL PAPILLOMA), Dose [Carcinogen]: 10 MG 2/WK FOR 7 WK, Promoter: NONE USED
  tumour outcome (control, treated, inhibition, significance): 12/22 (55%), 8/25 (32%), 42%, not significant
Carcinogen: N-BUTYL-N-(4-HYDROXYBUTYL)NITROSAMINE, 3817-11-6, Dose [Inhibitor]: 200 MG/KG DIET DAILY STARTING 7 D AFTER LAST CARCINOGEN INTUBATION AND CONTINUING THROUGH THE END OF STUDY (STUDY DURATI, Route [Inhibitor]: ORAL, Species: MOUSE, Strain/Sex: C57BL/MALE, Target Tissue: Type of Lesion: URINARY BLADDER: SQUAMOUS CELL CARCINOMA, Dose [Carcinogen]: 7.5 MG 2/WK FOR 6 WK, Promoter: NONE USED
  outcome: 6/24 (25%), 0/19 (0%), p<0.05
Carcinogen: N-BUTYL-N-(4-HYDROXYBUTYL)NITROSAMINE, 3817-11-6, Dose [Inhibitor]: 200 MG/KG DIET DAILY STARTING 7 D AFTER LAST CARCINOGEN INTUBATION AND CONTINUING THROUGH THE END OF STUDY (STUDY DURATI, Route [Inhibitor]: ORAL, Species: MOUSE, Strain/Sex: C57BL/MALE, Target Tissue: Type of Lesion: URINARY BLADDER: SQUAMOUS CELL CARCINOMA, Dose [Carcinogen]: 10 MG 2/WK FOR 7 WK, Promoter: NONE USED
  tumour outcome (control, treated, inhibition, significance): 6/22 (27%), 5/25 (20%), 26%, not significant
Carcinogen: N-BUTYL-N-(4-HYDROXYBUTYL)NITROSAMINE, 3817-11-6, Dose [Inhibitor]: 200 MG/KG DIET DAILY STARTING 7 D AFTER LAST CARCINOGEN INTUBATION AND CONTINUING THROUGH THE END OF STUDY (STUDY DURATI, Route [Inhibitor]: ORAL, Species: MOUSE, Strain/Sex: C57BL/MALE, Target Tissue: Type of Lesion: URINARY BLADDER: TRANSITIONAL AND SQUAMOUS CELL CARCINOMA, Dose [Carcinogen]: 10 MG 2/WK FOR 7 WK, Promoter: NONE USED
  tumour outcome (control, treated, inhibition, significance): 10/22 (45%), 7/25 (28%), 38%, not significant
Carcinogen: N-BUTYL-N-(4-HYDROXYBUTYL)NITROSAMINE, 3817-11-6, Dose [Inhibitor]: 240 MG/KG DIET DAILY STARTING 1, 5 OR 9 WK AFTER LAST CARCINOGEN INTUBATION AND CONTINUING THROUGH THE END OF STUDY (STU, Route [Inhibitor]: ORAL, Species: RAT, Strain/Sex: F344/MALE, Target Tissue: Type of Lesion: URINARY BLADDER: TRANSITIONAL CELL CARCINOMA, Dose [Carcinogen]: 100 MG 2/WK FOR 6 WK, Promoter: NONE USED
  tumour outcome (control, treated, inhibition, significance): 53%, 47%, 11%, not significant
Carcinogen: N-BUTYL-N-(4-HYDROXYBUTYL)NITROSAMINE, 3817-11-6, Dose [Inhibitor]: 240 MG/KG DIET DAILY STARTING 1, 5 OR 9 WK AFTER LAST CARCINOGEN INTUBATION AND CONTINUING THROUGH THE END OF STUDY (STU, Route [Inhibitor]: ORAL, Species: RAT, Strain/Sex: F344/MALE, Target Tissue: Type of Lesion: URINARY BLADDER: TRANSITIONAL CELL CARCINOMA, Dose [Carcinogen]: 150 MG 2/WK FOR 6 WK, Promoter: NONE USED
  tumour outcome (control, treated, inhibition, significance): 82%, 65%, 21%, p<0.01
Carcinogen: N-BUTYL-N-(4-HYDROXYBUTYL)NITROSAMINE, 3817-11-6, Dose [Inhibitor]: 240 MG/KG DIET DAILY STARTING 1, 5 OR 9 WK AFTER LAST CARCINOGEN INTUBATION AND CONTINUING THROUGH THE END OF STUDY (STU, Route [Inhibitor]: ORAL, Species: RAT, Strain/Sex: F344/MALE, Target Tissue: Type of Lesion: URINARY BLADDER: TRANSITIONAL CELL CARCINOMA, Dose [Carcinogen]: 200 MG 2/WK FOR 6 WK, Promoter: NONE USED
  tumour outcome (control, treated, inhibition, significance): 94%, 74%, 21%, p<0.001
Carcinogen: N-BUTYL-N-(4-HYDROXYBUTYL)NITROSAMINE, 3817-11-6, Dose [Inhibitor]: 240 MG/KG DIET DAILY STARTING 1 WK AFTER LAST CARCINOGEN DOSE AND CONTINUING FOR DURATION OF STUDY (STUDY DURATION: 6 MO, Route [Inhibitor]: ORAL, Species: RAT, Strain/Sex: F344/MALE, Target Tissue: Type of Lesion: BLADDER: TRANSITIONAL CELL CARCINOMA (HIGH GRADE), Dose [Carcinogen]: 200 MG IN 0.5 ML OF 20% ETHANOL 2/WK FOR 6 WK, Promoter: NONE USED
  tumour outcome (control, treated, inhibition, significance): 9/22 (41%), 4/21(19%), 54%, p<.05
Carcinogen: N-METHYL-N'-NITRO-N-NITROSOGUANIDINE, 70-25-7, Dose [Inhibitor]: 34 NMOL ONCE 0.5 HR BEFORE CARCINOGEN APPLICATION (STUDY DURATION: 25 WK), Route [Inhibitor]: DERMAL, Species: MOUSE, Strain/Sex: CD-1/FEMALE, Target Tissue: Type of Lesion: SKIN: PAPILLOMA, Dose [Carcinogen]: 5 UMOL IN 0.2 ML ACETONE ONCE 0.5 HR AFTER AGENT TREATMENT, Promoter: 12-O-TETRADECANOYLPHORBOL-13-ACETATE, 16561-29-8
  tumour outcome (control, treated, inhibition, significance): 92%, 96%, -4%, not significant
Carcinogen: N-METHYL-N-NITROSOUREA, 684-93-5, Dose [Inhibitor]: 12.5 MG/KG DAILY IN DIET STARTING 1 D AFTER LAST CARCINOGEN INJECTION AND CONTINUING FOR 256 D (STUDY DURATION: 285 D), Route [Inhibitor]: ORAL, Species: RAT, Strain/Sex: WISTAR-LEWIS/FEMALE, Target Tissue: Type of Lesion: URINARY BLADDER: PAPILLARY UROTHELIAL TUMOR, Dose [Carcinogen]: 1.5 MG IN 0.15 ML SALINE INJECTED INTO A SURGICALLY EXPOSED BLADDER 1/2 WK FOR A TOTAL OF 3 INJECTIONS, Promoter: NONE USED
  tumour outcome (control, treated, inhibition, significance): 8/30 (27%), 2/21 (10%), 63%, p<0.05
